Measurements as given in US20150093335A1, “CELL-TARGETED MAGNETIC NANO-MATERIAL AND BIOMEDICAL USES THEREOF” (Institute of Geology and Geophysics, Chinese Academy of …, priority 2012, published 2015).
Counter-ions that a name gives are not always drawn.

Tests used:
NCI-H460 lung cancer = assay: Treatment experiment on lung cancer in vivo
[1] = Longitudinal (r1) and transversal relaxivity measurement of gadolinium materials, 4.7T MRI; assay type: physicochemical; conditions: per gadolinium concentration 0-1 mM
Text: Gd contrast agents in clinical use can enhance the signal intensity of the lesion area during T1-weighted magnetic resonance imaging, thus showing a bright area. Since human naked eye is more sensitive to bright matters, these contrast agents can better meet the needs of human naked eye. But Gd contrast agents in clinical use have no targeting feature and have a low relaxation rate, thus failing to meet the needs for early diagnosis of diseases such as tumors. In the present invention, a tumor-targeted ferritin shell is used, and in the cavity thereof a gadolinium-iron nano-material is formed by biomimetic mineralization. By using purified human H-subunit ferritin as a template, a ferrous salt, a gadolinium salt and oxidant hydrogen peroxide are added into a solution of recombinant human ferritin, controlling the pH at 8.5 and the temperature at 65° C. […] The numbers of iron atoms and gadolinium atoms are measured through inductively coupled plasma mass spectrometry. The longitudinal relaxivity (r1) and transversal relaxivity (r2) of the material are measured using a 4.7T magnetic resonance imaging system. […]

U87MG human glioma = assay: 4.7T MRI of in-situ glioma; assay type: in vivo, nude mouse; conditions: 0.1 mmol/kg tail vein, scanned 2 hours, glioma about 1-2 mm
Description: 10^6 U87MG human glioma cells (purchased from ATCC, cultivated at Nanjing KeyGEN BioTECH development Ltd.) are inoculated onto the cerebral cortex of a nude mouse by in-situ penetration through the cranium and its tympanic membrane slightly off the median line of the cerebrum. Magnetic resonance imaging is conducted after about 3-4 days. The nude mouse is anesthetized by respiratory anesthesia and an intravenous needle is detained in tail vein. The mouse is put into a 4.7T MRI system and stays in stationary state in the course of magnetic resonance scanning. The commercialized Gd-DTPA contrast agent (magnevist, produced by Bayer Corp.) is first injected through tail vein as reference (injection dosage: 0.1 mmol/kg) and is scanned continuously for 2 hours in the magnetic resonance chamber. After the Gd-DTPA is completely metabolized and excreted, human H-subunit magnetoferritin is injected through tail vein (injection dosage: 20 mg Fe/kg mouse weight) and is scanned continuously for 3 hours. […]
Purified human H-subunit ferritin is partially or totally denatured using denaturant such as guanidine hydrochloride (1-7 M) or urea (2-8 M) etc. such that the subunits are partially or totally depolymerized. […] Protein quantification is conducted using BCA protein quantification reagent kit. The number of Gd atoms encapsulated in a single protein molecule is measured using ICP-MS. […]

Compound	tumor volume difference versus PBS control group (NCI-H460 lung cancer; 8 days after administration, doxorubicin 3 mg/kg every 3 days)	average tumor inhibition rate (NCI-H460 lung cancer; tumor weights, doxorubicin 3 mg/kg tail vein every 3 days, 15 days, 3 mice per group) [%]	longitudinal relaxivity r1 [1]	T1-weighted MRI signal intensity of the glioma area after injection (U87MG human glioma)
COc1cccc2c1C(=O)c1c(O)c3c(c(O)c1C2=O)C[C@@](O)(C(=O)CO)C[C@@H]3O[C@H]1C[C@H](N)[C@H](O)[C@H](C)O1 [doxorubicin hydrochloride]	minute difference	23	–	–
O=C([O-])CN(CCN(CC(=O)[O-])CC(=O)O)CCN(CC(=O)[O-])CC(=O)O.[Gd+3] [Gd-DTPA]	–	–	about 5.9 mM^−1S^−1	no evident change
